Source: patent US20110182982A1, “LIPOSOME TREATMENT OF VIRAL INFECTIONS” (University of Oxford, priority 2006, published 2011)

Key:
Hepatitis C virus = settings: alone or in combination with ribavirin; cited from earlier work
[1] = encapsulated into DCPP liposomes
CHO cells = assay: Liposome uptake (Rh-PE) and intracellular calcein dequenching; format: cell-based, Chinese hamster
Protocol: The effects of different DNJ compounds on the cellular uptake and intracellular release, when encapsulated inside DCPP liposomes, was determined by diluting compounds in 80-mM calcein and incorporating Rh-PE in liposome membranes as previously described, with the final liposome composition being DOPE:CHEMS:PEG-PE:Rh-PE (DCPP-Rh, 6:4:0.3:0.1) Liposomes encapsulating calcein alone, 10-μM DNJ, 1-mM DNJ, 10-μM NB-DNJ, 1-mM NB-DNJ, 10-μM NN-DNJ, or 1-mM NN-DNJ, were incubated with CHO cells for 45 min before liposomes were removed and cells were washed twice in 1×PBS. Cells were then analyzed in a fluorometer to measure calcein dequenching (λex=490 and λem=520 nm) and rhodamine fluorescence (λex=584 and λem=612 nm). Data represent the mean±S.D. obtained from triplicates of four independent experiments, where mean rhodamine fluorescence values reflect the binding and uptake of liposomes and the mean calcein fluorescence reflects the intracellular dequenching of the dye (i.e. dye released from liposomes into intracellular compartments). Results are expressed as the percent fluorescence measured following incubation with DNJ-containing liposomes as compared to the calcein/PBS-only liposome control (=100% on the x axis).
The calculated ratio of calcein to rhodamine fluorescence is taken as a measure of the amount of aqueous marker released per cell-associated liposome, and represents the efficiency of intracellular delivery.

[2] = pH sensitivity of DCPP liposomes (calcein leakage); format: physicochemical; settings: 1 mM encapsulated, pH 5.0-7.4, vs calcein only liposomes
Protocol: DCPP liposomes encapsulating 1-mM DNJ, NB-DNJ, or NN-DNJ in 80-mM calcein buffer were compared with empty (calcein only) liposomes to determine the effects of the alkyl chain of NB-DNJ and NN-DNJ on the pH-sensitivity. 10 μl of calcein-loaded DCPP liposomes (final phospholipid concentration, 5 μM) was added to 2 ml of MES-buffered saline at various pH values ranging from 5.0-7.4, and left to incubate with shaking 15 min at 37° C. Following incubation, calcein fluorescence was measured before and after the addition of Triton to a final concentration of 0.1%. Fluorescence intensities obtained at acidic pH values were corrected for the slight effect of pH on calcein fluorescence. The percentage of calcein release at each pH was calculated using the formula: % leakage=((in−I0)/(I100−I0))×100, where I0 is the fluorescence at neutral pH, In is the corrected intensity at acidic pH before the addition of Triton, and I100 is the total dequenched calcein at neutral pH.

[3] = 10 μM encapsulated in DCPP liposomes
[4] = 1 mM encapsulated in DCPP liposomes
[5] = encapsulated in DCPP-Rh liposomes

Molecule	patients in whom therapy is effective (Hepatitis C virus)	change of ER delivery of the peptide [1]	Efficiency (calcein/rhodamine, AU) (CHO cells; [3]) [AU]	Efficiency (calcein/rhodamine, AU) (CHO cells; [4]) [AU]	effect on calcein dequenching (intracellular release) (CHO cells; [5])	pH sensitivity / stability of DCPP liposomes [2]	cellular uptake of liposomes (CHO cells; [5])
interferon	up to 80%						
CSCC[C@H](NC(=O)[C@@H](NC(=O)CNC(=O)[C@H](CC(=O)O)NC(=O)[C@H](CCSC)NC(=O)[C@@H](N)Cc1ccc(O)cc1)[C@@H](C)O)C(=O)N[C@@H](CO)C(=O)N[C@@H](CCC(N)=O)C(=O)N[C@H](C(=O)O)C(C)C [YMDGTMSQV]		reduces the ER delivery of the peptide by an order of magnitude					
OC[C@H]1NC[C@H](O)[C@@H](O)[C@@H]1O [DNJ, deoxynojirimycin]			10.4 ± 1.8	10.8 ± 2.0	no effect	no difference in stability	
CCCCCCCCCN1C[C@H](O)[C@@H](O)[C@H](O)[C@H]1CO [NN-DNJ, N-nonyl deoxynojirimycin]			4.4 ± 1.3	3.2 ± 1.1	no effect	significant decrease in pH sensitivity	increase in cellular uptake
